Test results published in patent US11013677B2, “Methods and compositions to reduce staining for antibacterial oral care compositions” (Colgate-Palmolive Company, priority 2019, dated 2021).

Legend:
[1] = Bovine enamel model of CHX staining, FeCl3/CHX/chelator solutions, change in whiteness ΔW*; settings: for effect on teeth staining caused by CHX: when exposed to an iron solution (FeCl3 + CHX)
Text: (§1) A bovine enamel model was used to mimic CHX staining. The bovine teeth samples were kept hydrated until use. Baseline (L*, a*, and b*) measurements were taken of the samples before treatment using a spectroshade. The samples were then placed in a solution representing each of the treatments of Table 2 and then in artificial saliva. This cycle of soaking in the treatment and in artificial saliva was then repeated 14 times for each sample, with spectroshade measurements taken every two cycles immediately after soaking in the artificial saliva step (the samples were dabbed dry before measurements). Control samples soaked in FeCl3 alone and FeCl3+CHX solutions were also done.
(§2) The L*, a*, and b* values were used to calculate the change in whiteness (ΔW*) for each tooth after treatment as compared to the baseline values using Formulas (1) and (2) below. W*=((a*−0)^2+(b*−0)^2+(L*−100)^2)^1/2 Formula (1) ΔW*=W*treated−W*baseline Formula (2)
The more positive the value of ΔW*, the darker the tooth color is.

[2] = Bovine enamel staining model, CHX oral care compositions with metal chelator, ΔW*; settings: for effect on CHX-staining (ΔW*): added to an oral care composition containing CHX
Text: as §1, §2
Table 4 illustrates the effects of a metal chelator on CHX-caused staining when incorporating into an oral care composition including CHX according to implementations of the present disclosure. In particular, Table 4 illustrates the ΔW* for 5 oral care compositions containing CHX and measured similarly as described above. The more positive the value of ΔW*, the darker the tooth color is.
Oral Care Composition #1 is a commercially available antimicrobial oral rinse with 0.12% chlorhexidine gluconate. Oral Care Compositions #2-#5 are the same as Oral Care Composition #1 except they include the specified amounts (by weight) of a metal chelator.

O=C(O)CC(NC(CC(=O)O)C(=O)O)C(=O)O (stereo not shown) [Imminodisuccinic acid]
effect on teeth staining caused by CHX [1]: decreased the amount of teeth staining caused by CHX

[Cl][Fe]([Cl])[Cl] [FeCl3 alone, FeCl3]
ΔW* (change in whiteness) ([1]; Cycle 0 (baseline), more positive = darker tooth): 0 | ΔW* (change in whiteness) ([1]; Cycle 4 of treatment/artificial saliva soaking): 1.31 | ΔW* (change in whiteness) ([1]; Cycle 6 of treatment/artificial saliva soaking): 0.83 | ΔW* (change in whiteness) ([1]; Cycle 8 of treatment/artificial saliva soaking): 0.90 | ΔW* (change in whiteness) ([1]; Cycle 10 of treatment/artificial saliva soaking): 0.64 | ΔW* (change in whiteness) ([1]; Cycle 14 of treatment/artificial saliva soaking): 0.78

N[C@@H](CC(=O)O)C(=O)O [Aspartic acid]
relative performance in reducing CHX-staining ([2]; 1 weight % added to commercial rinse (0.12% chlorhexidine gluconate)): best performers | effect on CHX-staining (ΔW*) [2]: significantly reduced the amount of CHX-staining

N[C@@H](CCC(=O)O)C(=O)O [Glutamic acid]
relative performance in reducing CHX-staining ([2]; 0.2 weight % added to commercial rinse (0.12% chlorhexidine gluconate)): best performers | effect on CHX-staining (ΔW*) [2]: significantly reduced the amount of CHX-staining

O=P(O)(O)CN(CP(=O)(O)O)CP(=O)(O)O [ATMP, aminotris(methylenephosphonic acid)]
staining reduction, comparison of chelators ([1]; ATMP versus IDA, every cycle): performed better at every cycle compared to IDA | effect on teeth staining caused by CHX [1]: decreased the amount of teeth staining caused by CHX
